# Like-named read-outs stand apart in the source and are kept apart here.
# Experiments:
# [1] = system: Aspergillus candidus 450 (ATCC13686); assay: MIC, antifungal spectrum (Table 3); assay type: cell-based
# Protocol: (§1) The activities of several exemplary compounds of the present invention were assayed according to the CLSI standard M38-A2 titled “Reference Method for Broth Dilution Antifungal Susceptibility Testing of Filamentous Fungi”. However, the RPMI-1640 broth is substituted for a YPD medium formulated according to the following steps: […]
# (§2) 1. Dissolve 10 g of BactoYeast extract in 500 ml water
# (§3) 2. Dissolve 20 g of BactoPeptone in the above solution
# (§4) 3. Dissolve 20 g Dextrose in the above solution* *Ordinary table sugar (sucrose) substituted for dextrose routinely.
# (§5) 4. q.s. to 1000 ml with water
# [2] = system: Aspergillus clavatus 638 (ATCC10058); assay: MIC, antifungal spectrum (Table 3); assay type: cell-based
# Protocol: as §1, §2, §3, §4, §5
# [3] = system: Aspergillus flavus 122 (ATCC22546); assay: MIC, antifungal spectrum (Table 3); assay type: cell-based
# Protocol: as §1, §2, §3, §4, §5
# [4] = system: Aspergillus flavus 4787 (ATCC204304); assay: MIC, antifungal spectrum (Table 3); assay type: cell-based
# Protocol: as §1, §2, §3, §4, §5
# [5] = system: Aspergillus flavus 626 (ATCC64025); assay: MIC, antifungal spectrum (Table 3); assay type: cell-based
# Protocol: as §1, §2, §3, §4, §5
# [6] = system: Aspergillus fumigatus 5280 (ATCC MYA-3626); assay: MIC, antifungal spectrum (Table 3); assay type: cell-based
# Protocol: as §1, §2, §3, §4, §5
# [7] = system: Aspergillus fumigatus 891 (ATCC204305); assay: MIC, antifungal spectrum (Table 3); assay type: cell-based
# Protocol: as §1, §2, §3, §4, §5
# [8] = system: Aspergillus niger 624 (ATCC16888); assay: MIC, antifungal spectrum (Table 3); assay type: cell-based
# Protocol: as §1, §2, §3, §4, §5
# [9] = system: Aspergillus ochraceus 625 (ATCC96919); assay: MIC, antifungal spectrum (Table 3); assay type: cell-based
# Protocol: as §1, §2, §3, §4, §5
# [10] = system: Candida albicans 104 (ATCC90028); assay: MIC, antifungal spectrum (Table 3); assay type: cell-based
# Protocol: as §1, §2, §3, §4, §5
# [11] = system: Candida albicans 2000 (ATCC10231); assay: MIC, antifungal spectrum (Table 3); assay type: cell-based
# Protocol: as §1, §2, §3, §4, §5
# [12] = system: Candida albicans 2486 (ATCC204276); assay: MIC, antifungal spectrum (Table 3); assay type: cell-based
# Protocol: as §1, §2, §3, §4, §5
# [13] = system: Candida albicans 2487 (ATCC MYA-2732); assay: MIC, antifungal spectrum (Table 3); assay type: cell-based
# Protocol: as §1, §2, §3, §4, §5
# [14] = system: Candida albicans 4782 (ATCC24433); assay: MIC, antifungal spectrum (Table 3); assay type: cell-based
# Protocol: as §1, §2, §3, §4, §5
# [15] = system: Candida albicans 633 (ATCC90029); assay: MIC, antifungal spectrum (Table 3); assay type: cell-based
# Protocol: as §1, §2, §3, §4, §5
# [16] = system: Candida glabrata 635 (ATCC90030); assay: MIC, antifungal spectrum (Table 3); assay type: cell-based; settings: Nakaseomyces glabratus
# Protocol: as §1, §2, §3, §4, §5
# [17] = system: Candida guilliermondii 628 (ATCC34134); assay: MIC, antifungal spectrum (Table 3); assay type: cell-based; settings: Meyerozyma guilliermondii
# Protocol: as §1, §2, §3, §4, §5
# [18] = system: Candida krusei 629 (ATCC14243); assay: MIC, antifungal spectrum (Table 3); assay type: cell-based; settings: Pichia kudriavzevii
# Protocol: as §1, §2, §3, §4, §5
# [19] = system: Candida lusitaniae 631 (ATCC66035); assay: MIC, antifungal spectrum (Table 3); assay type: cell-based; settings: Clavispora lusitaniae
# Protocol: as §1, §2, §3, §4, §5
# [20] = system: Candida parapsilosis 0630 (ATCC90018); assay: MIC, antifungal spectrum (Table 3); assay type: cell-based; settings: Lodderomyces parapsilosis
# Protocol: as §1, §2, §3, §4, §5
# [21] = system: Candida parapsilosis 2323 (ATCC22019); assay: MIC, antifungal spectrum (Table 3); assay type: cell-based; settings: Lodderomyces parapsilosis
# Protocol: as §1, §2, §3, §4, §5
# [22] = system: Candida tropicalis 4783 (ATCC750); assay: MIC, antifungal spectrum (Table 3); assay type: cell-based
# Protocol: as §1, §2, §3, §4, §5
# [23] = system: Candida tropicalis 636 (ATCC90874); assay: MIC, antifungal spectrum (Table 3); assay type: cell-based
# Protocol: as §1, §2, §3, §4, §5
# [24] = system: Emericella nidulans 637 (ATCC96921); assay: MIC, antifungal spectrum (Table 3); assay type: cell-based; settings: Aspergillus nidulans
# Protocol: as §1, §2, §3, §4, §5
# [25] = system: Fusarium oxysporum 0893 (ATCC48112); assay: MIC, antifungal spectrum (Table 3); assay type: cell-based; settings: at 96 hr, read-out: MIC
# Protocol: as §1, §2, §3, §4, §5
# [26] = system: Issatchenkia orientalis 2322 (ATCC6258); assay: MIC, antifungal spectrum (Table 3); assay type: cell-based; settings: Pichia kudriavzevii
# Protocol: as §1, §2, §3, §4, §5
# [27] = system: Rhizopus oryzae 0890 (ATCC11886); assay: MIC, antifungal spectrum (Table 3); assay type: cell-based; settings: Rhizopus arrhizus
# Protocol: as §1, §2, §3, §4, §5
# [28] = system: Saccharomyces cerevisiae 0639 (ATCC7754); assay: MIC, antifungal spectrum (Table 3); assay type: cell-based
# Protocol: as §1, §2, §3, §4, §5
# [29] = system: Sporothrix schenkii 892 (ATCC14284); assay: MIC, antifungal spectrum (Table 3); assay type: cell-based; settings: at 96 hrs, read-out: MIC
# Protocol: as §1, §2, §3, §4, §5
# [30] = system: Trychophyton mentagrophytes 5278 (ATCC MYA-4439); assay: MIC, antifungal spectrum (Table 3); assay type: cell-based; settings: at 96 hrs, read-out: MIC
# Protocol: as §1, §2, §3, §4, §5
# [31] = system: Trychophyton mentagrophytes 640 (ATCC 28185); assay: MIC, antifungal spectrum (Table 3); assay type: cell-based
# Protocol: as §1, §2, §3, §4, §5
# [32] = system: Trychophyton rubrum 5279 (ATCC MYA-4438); assay: MIC, antifungal spectrum (Table 3); assay type: cell-based; settings: at 72 hrs, read-out: MIC
# Protocol: as §1, §2, §3, §4, §5
# [33] = system: Aspergillus fumigatus 5280 (ATCC MYA-3626); settings: at 48 hrs; cited from earlier work
# [34] = system: Candida parapsilosis 2323 (ATCC22019); settings: cited from earlier work
structure (smiles),measurement,setting,value
"C[C@@H]1[C@H](O)[C@@H](C)/C=C/C=C/C=C/C=C/C=C/C=C/C=C/[C@H](O[C@@H]2O[C@H](C)[C@@H](O)[C@H](N)[C@@H]2O)C[C@@H]2O[C@](O)(C[C@@H](O)C[C@@H](O)[C@H](O)CC[C@@H](O)C[C@@H](O)CC(=O)O[C@H]1C)C[C@H](O)[C@H]2C(=O)O [Amphotericin, Amphotericin B]",MIC,[1]; 48 hr reading,0.03 µg/mL
same,MIC,[1]; 72 hr reading,0.06 µg/mL
same,MIC,[2]; 48 hr reading,≤ 0.004 µg/mL
same,MIC,[2]; 72 hr reading,0.015 µg/mL
same,MIC,[3]; 48 hr reading,0.25 µg/mL
same,MIC,[3]; 72 hr reading,0.25 µg/mL
same,MIC,[4]; 48 hr reading,0.25 µg/mL
same,MIC,[4]; 72 hr reading,0.25 µg/mL
same,MIC,[5]; 48 hr reading,0.5 µg/mL
same,MIC,[5]; 72 hr reading,0.5 µg/mL
same,MIC,"[6]; 48 h, Aspergillus fumigatus 5280 (ATCC MYA-3626) no Tween, 48 hr reading",1 µg/mL
same,MIC,"[6]; 48 h, Aspergillus fumigatus 5280 (ATCC MYA-3626), 48 hr reading",0.25 µg/mL
same,MIC,"[6]; 72 h, Aspergillus fumigatus 5280 (ATCC MYA-3626) no Tween, 72 hr reading",2 µg/mL
same,MIC,"[6]; 72 h, Aspergillus fumigatus 5280 (ATCC MYA-3626), 72 hr reading",0.5 µg/mL
same,MIC,[7]; 48 hr reading,0.25 µg/mL
same,MIC,[7]; 72 hr reading,1 µg/mL
same,MIC,[8]; 48 hr reading,0.03 µg/mL
same,MIC,[8]; 72 hr reading,0.125 µg/mL
same,MIC,[9]; 48 hr reading,0.25 µg/mL
same,MIC,[9]; 72 hr reading,0.5 µg/mL
same,MIC,[10]; 48 hr reading,0.3 µg/mL
same,MIC,[10]; 72 hr reading,0.6 µg/mL
same,MIC,[11]; 48 hr reading,0.3 µg/mL
same,MIC,[11]; 72 hr reading,0.6 µg/mL
same,MIC,[12]; 48 hr reading,0.06 µg/mL
same,MIC,[12]; 72 hr reading,0.06 µg/mL
same,MIC,[13]; 48 hr reading,0.06 µg/mL
same,MIC,[13]; 72 hr reading,0.06 µg/mL
same,MIC,[14]; 48 hr reading,0.3 µg/mL
same,MIC,[14]; 72 hr reading,0.6 µg/mL
same,MIC,[15]; 48 hr reading,0.3 µg/mL
same,MIC,[15]; 72 hr reading,0.6 µg/mL
same,MIC,[16]; 48 hr reading,0.03 µg/mL
same,MIC,[16]; 72 hr reading,0.125 µg/mL
same,MIC,[17]; 48 hr reading,0.008 µg/mL
same,MIC,[17]; 72 hr reading,0.015 µg/mL
same,MIC,[18]; 48 hr reading,0.125 µg/mL
same,MIC,[18]; 72 hr reading,0.125 µg/mL
same,MIC,[19]; 48 hr reading,0.015 µg/mL
same,MIC,[19]; 72 hr reading,0.03 µg/mL
same,MIC,[20]; 48 hr reading,0.06 µg/mL
same,MIC,[20]; 72 hr reading,0.125 µg/mL
same,MIC,"[21]; ATCC22019, 48 h, Candida parapsilosis 2323 (ATCC22019) no Tween, 48 hr reading",0.25 µg/mL
same,MIC,"[21]; ATCC22019, 48 h, Candida parapsilosis 2323 (ATCC22019), 48 hr reading",0.125 µg/mL
same,MIC,"[21]; ATCC22019, 72 h, Candida parapsilosis 2323 (ATCC22019) no Tween, 72 hr reading",1 µg/mL
same,MIC,"[21]; ATCC22019, 72 h, Candida parapsilosis 2323 (ATCC22019), 72 hr reading",0.125 µg/mL
same,MIC,[22]; 48 hr reading,0.06 µg/mL
same,MIC,[22]; 72 hr reading,0.125 µg/mL
same,MIC,[23]; 48 hr reading,0.06 µg/mL
same,MIC,[23]; 72 hr reading,0.125 µg/mL
same,MIC,[24]; 48 hr reading,1 µg/mL
same,MIC,[24]; 72 hr reading,2 µg/mL
same,MIC,[25],1 µg/mL
same,MIC,[26]; 48 hr reading,0.125 µg/mL
same,MIC,[26]; 72 hr reading,0.125 µg/mL
same,MIC,[27]; 48 hr reading,0.03 µg/mL
same,MIC,[27]; 72 hr reading,0.03 µg/mL
same,MIC,[28]; 48 hr reading,0.06 µg/mL
same,MIC,[28]; 72 hr reading,0.06 µg/mL
same,MIC,[29],0.5 µg/mL
same,MIC,[30],0.06 µg/mL
same,MIC,[31]; 48 hr reading,0.06 µg/mL
same,MIC,[31]; 72 hr reading,0.25 µg/mL
same,MIC,[32],0.03 µg/mL
same,Amphotericin B CLSI QC Range for A. Fumigatus ATCC MYA-3626,[33],0.5-4 at 48 hrs μg/ml
same,Amphotericin B CLSI QC Range for C. parapsilosis,[34]; 24 hrs,0.25-2 (24 hrs) μg/ml
same,Amphotericin B CLSI QC Range for C. parapsilosis,[34]; 48 hrs,0.5-4 (48 hrs) μg/ml

# From US8906848B2, “Aureobasidin derivatives and methods of synthesis” (priority 2011, dated 2014)
